{
  "source": "patent US9339463B2",
  "about": "“Micronized opioid compositions having a specific particle size distribution” (priority 2007, dated 2016)",
  "type_in_all_cases": "physicochemical",
  "key": {"[1]": {"experiment": "Physical stability on storage: microscopy", "experimental": "(§1) As a secondary analytical method, the micronized and the non-micronized oxycodone analyzed by laser diffraction with results shown in Table 1, were analyzed by optical microscopy to evaluate particle size and the results are shown in Table 2. Sample aliquots (˜50 mg for micronized and ˜225 mg for non-micronized) were dispersed in 10 ml of sunflower oil and viewed on a Nikon microscope equipped with a 10× objective. Particle size (mean diameter) was determined using Image Pro® Plus software and expressed as a number % undersize. The particle size values determined by optical microscopy as shown in Table 2 are consistent with the laser diffraction particle size data shown in Table 1.\n(§2) Samples of Example 2 and additional samples comprising micronized and non-micronized oxycodone useful for exemplary dosage forms are tested for their chemical stability and physical stability. Based on a comparison of stability data from micronized and non-micronized samples stored at both 25° C./60% RH and 40 C.°/75% RH, no differences are observed in the impurity profile through three months of study as shown in Tables 4 and 5 for exemplary lots. The impurities analyzed include (HOXY), 14-Hydroxycodeinone; (DHOXYN), 7,8-Dihydro-8,14-Dihydroxycodeinone; (DHOXY), 7,8-Dihydro-14-hydroxycodeine; (OXYE), Oxycodone ethylenolate; (OXYN), 1-Hydroxyoxycodone and Oxycodone N-oxide. Most of the impurities are found to be below the limit of quantitation (LOQ), except for HOXY and DHOXYN which were unchanged at 0.1%. […] The solid state stability of the micronized oxycodone is monitored for particle size, XRPD, DSC, and microscopy as shown in Table 6."}, "[2]": {"experiment": "Chemical stability on storage: assay and impurities", "experimental": "as §2"}, "[3]": {"experiment": "Particle size by optical microscopy, number % undersize", "details": "mean diameter", "experimental": "as §1"}, "[4]": {"experiment": "Physical stability on storage: particle size (Dv90) by laser diffraction"}, "[5]": {"experiment": "Physical stability on storage: DSC onset melt", "experimental": "The micronized lots may also be analyzed by Differential Scanning Calorimetry (DSC). DSC is performed on a TA instrument Q100 using a heating ramp from 25-235° C. at a rate of 5° C./min. […] The sharp endotherm observed is consistent with a crystalline material and the absence of other thermal events proves that there were no polymorph transformations during melting.\nas §2"}, "[6]": {"experiment": "Particle size distribution by laser diffraction (Malvern Mastersizer 2000), oxycodone base"}, "[7]": {"details": "Table 1 analysis, lot 2 in duplicate"}, "[8]": {"details": "additional laser diffraction analysis, Table 3"}},
  "data": [
    {"smiles": "COc1ccc2c3c1O[C@H]1C(=O)CC[C@@]4(O)[C@@H](C2)N(C)CC[C@]314", "note": "[Lot 1, oxycodone]", "values": [
      {"measurement": "Microscopy, ≦10 μ", "setting": "[1]; 25° C./60% RH, 3 mo", "value": 98.4, "unit": "%"},
      {"measurement": "Microscopy, ≦10 μ", "setting": "[1]; 40° C./75% RH, 3 mo", "value": 98.2, "unit": "%"},
      {"measurement": "Microscopy, ≦10 μ", "setting": "[1]; Time 0", "value": 99.5, "unit": "%"},
      {"measurement": "1-HydroxyOXY", "setting": "[2]; 5° C./60% RH, 1 mo (Table 4)", "value": "<LOQ"},
      {"measurement": "1-HydroxyOXY", "setting": "[2]; 5° C./60% RH, 3 mo (Table 4)", "value": "<LOQ"},
      {"measurement": "Assay", "setting": "[2]; 25° C./60% RH, 1 mo", "value": 98.9, "unit": "%"},
      {"measurement": "DHOXY (7,8-Dihydro-14-hydroxycodeine)", "setting": "[2]; 25° C./60% RH, 1 mo", "value": "<LOQ"},
      {"measurement": "DHOXYN (7,8-Dihydro-8,14-Dihydroxycodeinone)", "setting": "[2]; 25° C./60% RH, 1 mo", "value": 0.10, "unit": "%"},
      {"measurement": "HOXY (14-Hydroxycodeinone)", "setting": "[2]; 25° C./60% RH, 1 mo", "value": 0.08, "unit": "%"},
      {"measurement": "OXYE (Oxycodone ethylenolate)", "setting": "[2]; 25° C./60% RH, 1 mo", "value": "<LOQ"},
      {"measurement": "OXYN", "setting": "[2]; 25° C./60% RH, 1 mo", "value": "<LOQ"},
      {"measurement": "Other (impurities; Table 5: >0.05%)", "setting": "[2]; 25° C./60% RH, 1 mo", "value": "<LOQ"},
      {"measurement": "Total impurities", "setting": "[2]; 25° C./60% RH, 1 mo", "value": 0.18, "unit": "%"},
      {"measurement": "Assay", "setting": "[2]; 25° C./60% RH, 3 mo", "value": 99.9, "unit": "%"},
      {"measurement": "DHOXY (7,8-Dihydro-14-hydroxycodeine)", "setting": "[2]; 25° C./60% RH, 3 mo", "value": "<LOQ"},
      {"measurement": "DHOXYN (7,8-Dihydro-8,14-Dihydroxycodeinone)", "setting": "[2]; 25° C./60% RH, 3 mo", "value": 0.10, "unit": "%"},
      {"measurement": "HOXY (14-Hydroxycodeinone)", "setting": "[2]; 25° C./60% RH, 3 mo", "value": 0.08, "unit": "%"},
      {"measurement": "OXYE (Oxycodone ethylenolate)", "setting": "[2]; 25° C./60% RH, 3 mo", "value": "<LOQ"},
      {"measurement": "OXYN", "setting": "[2]; 25° C./60% RH, 3 mo", "value": "<LOQ"},
      {"measurement": "Other (impurities; Table 5: >0.05%)", "setting": "[2]; 25° C./60% RH, 3 mo", "value": "<LOQ"},
      {"measurement": "Total impurities", "setting": "[2]; 25° C./60% RH, 3 mo", "value": 0.18, "unit": "%"},
      {"measurement": "1-HydroxyOXY", "setting": "[2]; 40° C./75% RH, 1 mo", "value": "<LOQ"},
      {"measurement": "Assay", "setting": "[2]; 40° C./75% RH, 1 mo", "value": 100.0, "unit": "%"},
      {"measurement": "DHOXY (7,8-Dihydro-14-hydroxycodeine)", "setting": "[2]; 40° C./75% RH, 1 mo", "value": "<LOQ"},
      {"measurement": "DHOXYN (7,8-Dihydro-8,14-Dihydroxycodeinone)", "setting": "[2]; 40° C./75% RH, 1 mo", "value": 0.10, "unit": "%"},
      {"measurement": "HOXY (14-Hydroxycodeinone)", "setting": "[2]; 40° C./75% RH, 1 mo", "value": 0.08, "unit": "%"},
      {"measurement": "OXYE (Oxycodone ethylenolate)", "setting": "[2]; 40° C./75% RH, 1 mo", "value": "<LOQ"},
      {"measurement": "OXYN", "setting": "[2]; 40° C./75% RH, 1 mo", "value": "<LOQ"},
      {"measurement": "Other (impurities; Table 5: >0.05%)", "setting": "[2]; 40° C./75% RH, 1 mo", "value": "<LOQ"},
      {"measurement": "Total impurities", "setting": "[2]; 40° C./75% RH, 1 mo", "value": 0.18, "unit": "%"},
      {"measurement": "1-HydroxyOXY", "setting": "[2]; 40° C./75% RH, 3 mo", "value": "<LOQ"},
      {"measurement": "Assay", "setting": "[2]; 40° C./75% RH, 3 mo", "value": 99.5, "unit": "%"},
      {"measurement": "DHOXY (7,8-Dihydro-14-hydroxycodeine)", "setting": "[2]; 40° C./75% RH, 3 mo", "value": "<LOQ"},
      {"measurement": "DHOXYN (7,8-Dihydro-8,14-Dihydroxycodeinone)", "setting": "[2]; 40° C./75% RH, 3 mo", "value": 0.10, "unit": "%"},
      {"measurement": "HOXY (14-Hydroxycodeinone)", "setting": "[2]; 40° C./75% RH, 3 mo", "value": 0.08, "unit": "%"},
      {"measurement": "OXYE (Oxycodone ethylenolate)", "setting": "[2]; 40° C./75% RH, 3 mo", "value": "<LOQ"},
      {"measurement": "OXYN", "setting": "[2]; 40° C./75% RH, 3 mo", "value": "<LOQ"},
      {"measurement": "Other (impurities; Table 5: >0.05%)", "setting": "[2]; 40° C./75% RH, 3 mo", "value": "<LOQ"},
      {"measurement": "Total impurities", "setting": "[2]; 40° C./75% RH, 3 mo", "value": 0.18, "unit": "%"},
      {"measurement": "1-HydroxyOXY", "setting": "[2]; Time 0", "value": "<LOQ"},
      {"measurement": "Assay", "setting": "[2]; Time 0", "value": 99.3, "unit": "%"},
      {"measurement": "DHOXY (7,8-Dihydro-14-hydroxycodeine)", "setting": "[2]; Time 0", "value": "<LOQ"},
      {"measurement": "DHOXYN (7,8-Dihydro-8,14-Dihydroxycodeinone)", "setting": "[2]; Time 0", "value": 0.10, "unit": "%"},
      {"measurement": "HOXY (14-Hydroxycodeinone)", "setting": "[2]; Time 0", "value": 0.08, "unit": "%"},
      {"measurement": "OXYE (Oxycodone ethylenolate)", "setting": "[2]; Time 0", "value": "<LOQ"},
      {"measurement": "OXYN", "setting": "[2]; Time 0", "value": "<LOQ"},
      {"measurement": "Other (impurities; Table 5: >0.05%)", "setting": "[2]; Time 0", "value": "<LOQ"},
      {"measurement": "Total impurities", "setting": "[2]; Time 0", "value": 0.18, "unit": "%"},
      {"measurement": "% ≦ 1μ", "setting": "[3]", "value": 30.5, "unit": "%"},
      {"measurement": "% ≦ 5μ", "setting": "[3]", "value": 92.7, "unit": "%"},
      {"measurement": "% ≦ 10μ", "setting": "[3]", "value": 99.5, "unit": "%"},
      {"measurement": "Particle size (Dv90)", "setting": "[4]; 25° C./60% RH, 3 months", "value": 6, "unit": "μ"},
      {"measurement": "Particle size (Dv90)", "setting": "[4]; 40° C./75% RH, 3 months", "value": 11, "unit": "μ"},
      {"measurement": "Particle size (Dv90)", "setting": "[4]; Time 0", "value": 4, "unit": "μ"},
      {"measurement": "DSC Onset Melt", "setting": "[5]; 25° C./60% RH, 3 mo", "value": 221.8, "unit": "°C"},
      {"measurement": "DSC Onset Melt", "setting": "[5]; 40° C./75% RH, 3 mo", "value": 221.9, "unit": "°C"},
      {"measurement": "DSC Onset Melt", "setting": "[5]; Time 0", "value": 222.0, "unit": "°C"},
      {"measurement": "Particle size (Dv10)", "setting": "[6]; [7]", "value": 0.5, "unit": "μ"},
      {"measurement": "Particle size (Dv50)", "setting": "[6]; [7]", "value": 1.4, "unit": "μ"},
      {"measurement": "Particle size (Dv90)", "setting": "[6]; [7]", "value": 3.0, "unit": "μ"},
      {"measurement": "Particle size (Dv10)", "setting": "[6]; [8]", "value": 0.7, "unit": "μ"},
      {"measurement": "Particle size (Dv50)", "setting": "[6]; [8]", "value": 2.1, "unit": "μ"},
      {"measurement": "Particle size (Dv90)", "setting": "[6]; [8]", "value": 5.1, "unit": "μ"}
    ]}
  ]
}
